“And” between values parts separate entries of the source, which are not always exact repeats. Identical values can stand only once. Inconclusive results and toxic doses are left out. The calls were made as follows: active = survival T/C of 150% or more; inactive = T/C below 125% in these data.
System: P388 leukemia ip, CD2F1 mice, survival T/C
Assay: NCI In Vivo Anticancer Drug Screen. Data for tumor model P388 Leukemia (intraperitoneal) in CD2F1 (CDF1) mice
Conditions: endpoint: median survival time, higher = longer survival
In short: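 Mice carrying the transplanted tumor received test compound or vehicle. Survival was recorded in each group, and the value is the treated-group measurement divided by that of the vehicle-treated control group.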

[1] = dose: 50.0 mg/kg/injection, schedule: Q01DX009 (ip), vehicle: saline with Tween-80
[2] = dose: 100.0 mg/kg/injection, schedule: Q01DX009 (ip), vehicle: saline with Tween-80
[3] = dose: 100.0 mg/kg/injection, schedule: Q04DX003 (ip), vehicle: saline with Tween-80
[4] = dose: 200.0 mg/kg/injection, schedule: Q04DX003 (ip), vehicle: saline with Tween-80
[5] = dose: 400.0 mg/kg/injection, schedule: Q04DX003 (ip), vehicle: saline with Tween-80
[6] = dose: 60.0 mg/kg/injection, schedule: Q01DX005 (ip), vehicle: saline with Tween-80
[7] = dose: 120.0 mg/kg/injection, schedule: Q01DX005 (ip), vehicle: saline with Tween-80
[8] = dose: 100.0 mg/kg/injection, schedule: Q01DX005 (ip), vehicle: saline with Tween-80
[9] = dose: 200.0 mg/kg/injection, schedule: Q01DX005 (ip), vehicle: saline with Tween-80

Measured: T/C

C1CNCCNCCNCCN1
inactive: dose: 12.5 mg/kg/injection, schedule: Q01DX009 (ip), vehicle: water 101 % of control | dose: 25.0 mg/kg/injection, schedule: Q01DX009 (ip), vehicle: water 96 % of control | dose: 50.0 mg/kg/injection, schedule: Q01DX009 (ip), vehicle: water 100 % of control | dose: 100.0 mg/kg/injection, schedule: Q01DX009 (ip), vehicle: water 101 % of control

CS(=O)(=O)OCC1OC(n2ncc(=O)[nH]c2=O)C(O)C1O (centres undefined)
inactive: [1] 100 % of control | [2] 95 % of control | dose: 200.0 mg/kg/injection, schedule: Q01DX009 (ip), vehicle: saline with Tween-80 101 % of control

C=C1C(C)C2C(Cc3ccccc3)NC(=O)C23OC(=O)/C=C\CC(=O)CCC(C)C/C=C/C3C1O (centres undefined)
inactive: dose: 5.0 mg/kg/injection, schedule: Q01DX009 (ip), vehicle: Klucel (hydroxypropylcellulose) (HPC) 110 % of control | dose: 10.0 mg/kg/injection, schedule: Q01DX009 (ip), vehicle: Klucel (hydroxypropylcellulose) (HPC) 118 % of control

CCCCN(C)N=Nc1ccccc1C(N)=O
inactive: dose: 25.0 mg/kg/injection, schedule: Q01DX009 (ip), vehicle: saline with Tween-80 109 % of control | [1] 118 % of control | [3] 113 % of control | dose: 176.0 mg/kg/injection, schedule: Q04DX003 (ip), vehicle: saline with Tween-80 109 % of control | [4] 109 % of control | dose: 264.0 mg/kg/injection, schedule: Q04DX003 (ip), vehicle: saline with Tween-80 109 % of control | [5] 100 % of control

N#CC(/C=C/c1ccccc1)(NO)Nc1cccc(Cl)c1 (centres undefined)
inactive: [6] 116 % of control | [7] 114 % of control

Cc1ccc(SSC(=S)N2CCOCC2)cc1
inactive: dose: 100.0 mg/kg/injection, schedule: Q01DX001 (ip), vehicle: Klucel (hydroxypropylcellulose) (HPC) 104 % of control | dose: 200.0 mg/kg/injection, schedule: Q01DX001 (ip), vehicle: Klucel (hydroxypropylcellulose) (HPC) 96 % of control | dose: 400.0 mg/kg/injection, schedule: Q01DX001 (ip), vehicle: Klucel (hydroxypropylcellulose) (HPC) 101 % of control

CC(C)CC(=N)CC(C)C
inactive: dose: 50.0 mg/kg/injection, schedule: Q01DX005 (ip), vehicle: saline with Tween-80 100 % of control | [8] 100 % of control | [9] 96 % of control

CNC1C(O)C(OC2C(N)CC(N)C(OC3OC(CN)=CCC3N)C2O)OCC1(C)O (centres undefined)
inactive: dose: 62.5 mg/kg/injection, schedule: Q01DX009 (ip), vehicle: saline 104 % of control | dose: 125.0 mg/kg/injection, schedule: Q01DX009 (ip), vehicle: saline 104 % of control

Clc1cc(Cl)c(OCC#CI)c(Cl)c1Cl
inactive: [1] 86 % of control | [3] 109 % of control | [4] 100 % of control

O=c1[nH]cnc2cc3c(cc12)nc1n3CCOC1
inactive: dose: 100.0 mg/kg/injection, schedule: Q04DX003 (ip), vehicle: saline 109 % of control | dose: 200.0 mg/kg/injection, schedule: Q04DX003 (ip), vehicle: saline 105 % of control

O=[N+]([O-])c1c(-c2ccccc2)csc1SSc1scc(-c2ccccc2)c1[N+](=O)[O-]
inactive: [3] 103 % of control | [4] 96 % of control | [5] 100 % of control

C=C=C(C)CN(CC)CC
inactive: dose: 50.0 mg/kg/injection, schedule: Q01DX005 (ip), vehicle: saline 108 % of control | dose: 100.0 mg/kg/injection, schedule: Q01DX005 (ip), vehicle: saline 107 % of control | dose: 200.0 mg/kg/injection, schedule: Q01DX005 (ip), vehicle: saline 108 % of control

C1OC2C1OC1COC12 (centres undefined)
inactive: dose: 60.0 mg/kg/injection, schedule: Q01DX005 (ip), vehicle: saline 108 % of control | dose: 120.0 mg/kg/injection, schedule: Q01DX005 (ip), vehicle: saline 100 % of control | dose: 240.0 mg/kg/injection, schedule: Q01DX005 (ip), vehicle: saline 107 % of control

N#CC(Cc1ccccc1)c1ccccc1 (centres undefined)
inactive: dose: 25.0 mg/kg/injection, schedule: Q01DX009 (ip), vehicle: distilled water + Tween-80 95 % of control | dose: 50.0 mg/kg/injection, schedule: Q01DX009 (ip), vehicle: distilled water + Tween-80 110 % of control | dose: 100.0 mg/kg/injection, schedule: Q01DX009 (ip), vehicle: distilled water + Tween-80 93 % of control

CC(=S)N(c1ccccc1)c1ccccc1
inactive: dose: 60.0 mg/kg/injection, schedule: Q01DX005 (ip), vehicle: Klucel (hydroxypropylcellulose) (HPC) 101 % of control | dose: 120.0 mg/kg/injection, schedule: Q01DX005 (ip), vehicle: Klucel (hydroxypropylcellulose) (HPC) 96 % of control | dose: 240.0 mg/kg/injection, schedule: Q01DX005 (ip), vehicle: Klucel (hydroxypropylcellulose) (HPC) 93 % of control

O=C1C2C3C4C5C(C2C5(Br)C32OCCO2)C14Br (centres undefined)
inactive: dose: 100.0 mg/kg/injection, schedule: Q04DX003 (ip), vehicle: Klucel (hydroxypropylcellulose) (HPC) 106 % of control | dose: 200.0 mg/kg/injection, schedule: Q04DX003 (ip), vehicle: Klucel (hydroxypropylcellulose) (HPC) 107 % of control | dose: 400.0 mg/kg/injection, schedule: Q04DX003 (ip), vehicle: Klucel (hydroxypropylcellulose) (HPC) 113 % of control

Cc1ccc(N)c(C(O)(C(F)(F)F)C(F)(F)F)c1
inactive: [1] 99 % of control | [2] 101 % of control

ClCC(Br)CBr (centres undefined) (tested in a mixture with another compound)
inactive: dose: 12.5 mg/kg/injection, schedule: Q01DX009 (ip), vehicle: saline 96 % of control | dose: 25.0 mg/kg/injection, schedule: Q01DX009 (ip), vehicle: saline 96 % of control

C1CCC(C2CCCC[N-]2)[N-]C1.O.O.[Pd+2] (centres undefined)
inactive: dose: 6.25 mg/kg/injection, schedule: Q04DX003 (ip), vehicle: Klucel (hydroxypropylcellulose) (HPC) 102 % of control | dose: 6.25 mg/kg/injection, schedule: Q04DX003 (ip), vehicle: saline with Tween-80 96 % of control | dose: 12.5 mg/kg/injection, schedule: Q04DX003 (ip), vehicle: Klucel (hydroxypropylcellulose) (HPC) 102 % of control | dose: 12.5 mg/kg/injection, schedule: Q04DX003 (ip), vehicle: saline with Tween-80 104 % of control | dose: 25.0 mg/kg/injection, schedule: Q04DX003 (ip), vehicle: Klucel (hydroxypropylcellulose) (HPC) 102 % of control | dose: 25.0 mg/kg/injection, schedule: Q04DX003 (ip), vehicle: saline with Tween-80 98 % of control and 105 % of control | dose: 50.0 mg/kg/injection, schedule: Q04DX003 (ip), vehicle: Klucel (hydroxypropylcellulose) (HPC) 101 % of control | dose: 50.0 mg/kg/injection, schedule: Q04DX003 (ip), vehicle: saline with Tween-80 96 % of control | [3] 97 % of control

COC(=O)CC1(C(=O)OC)C2=C(C(=O)c3ccccc3C2=O)N2CCCC21 (centres undefined)
inactive: dose: 12.5 mg/kg/injection, schedule: Q01DX009 (ip), vehicle: Klucel (hydroxypropylcellulose) (HPC) 99 % of control | dose: 25.0 mg/kg/injection, schedule: Q01DX009 (ip), vehicle: Klucel (hydroxypropylcellulose) (HPC) 100 % of control | dose: 50.0 mg/kg/injection, schedule: Q01DX009 (ip), vehicle: Klucel (hydroxypropylcellulose) (HPC) 106 % of control | dose: 100.0 mg/kg/injection, schedule: Q01DX009 (ip), vehicle: Klucel (hydroxypropylcellulose) (HPC) 103 % of control

CCN(CC)C(=S)n1nc(C)c(N=Nc2cccc(Cl)c2Cl)c1C
inactive: dose: 6.25 mg/kg/injection, schedule: Q01DX005 (ip), vehicle: saline with Tween-80 103 % of control | dose: 12.5 mg/kg/injection, schedule: Q01DX005 (ip), vehicle: saline with Tween-80 97 % of control | dose: 25.0 mg/kg/injection, schedule: Q01DX005 (ip), vehicle: saline with Tween-80 93 % of control | [8] 91 % of control | [9] 94 % of control

O=c1[nH]c(Nc2ccccc2)c([N+](=O)[O-])c(=O)[nH]1
inactive: [6] 106 % of control | [7] 107 % of control | dose: 240.0 mg/kg/injection, schedule: Q01DX005 (ip), vehicle: saline with Tween-80 106 % of control
